In patent publication US11591341B2 (ALIGOS THERAPEUTICS, INC., priority 2019, dated 2023):
pEC50: −log10 of the molar value.

Tested on: HBV
Test: HBV-DNA Antiviral Assay Using HepG2.117 Cells (intracellular HBV DNA by qPCR)
Type: cell-based, hepatitis B virus (genotype D)
Details: Hepatitis B virus, HepG2.117
Method: The following assay procedure describes the HBV antiviral assay, using HepG2.117 cells, which carry a stably integrated genotype D HBV genome under the control of a Tet-off promoter, and intracellular HBV DNA quantification as endpoint. Cell viability is assessed in parallel by measuring the intracellular ATP content using ATPlite (Perkin Elmer).
On day 0, HepG2.117 cells (which are maintained in routine cell culture with doxycycline present in the medium at a final concentration of 1 μg/mL) were seeded in 96-well plates (white with clear bottom) at a density of 2.0×10^4 cells/well (0.1 mL/well) in medium without doxycycline to induce pgRNA transcription and subsequent formation of HBV particles. The cells were incubated at 37° C. and 5% CO2.
On day 1, medium was removed from each well, the test articles were diluted in culture medium without doxcycyline and 100 μL was added to cell culture wells (9 concentrations, 4-fold dilution). For each plate, 6 untreated (merely DMSO) wells were included. The final concentration of DMSO in the culture medium was 2%. Each plate was prepared in duplicate (one for HBV DNA extraction, one for ATPlite measurement). The cells were incubated at 37° C. and 5% CO2 for 3 days.
On day 4, cell viability was assessed using ATPlite and cell lysates were prepared for HBV DNA extraction and subsequent quantification by qPCR.
Medium was removed from each well and 100 μL of 0.33% NP-40 in H2O was added to each well. Plates were sealed, incubated at 4° C. for 5 mins, vortexed extensively and centrifuged briefly. Next, 35 μL of lysate was added to 65 μL QuickExtract DNA Extraction Solution (Epicentre) in a PCR plate for each well. PCR plate was incubated at 65° C. for 6 mins, 98° C. for 2 mins and finally cooled to 4° C. HBV DNA was then quantified by qPCR with HBV-specific primers and probes as specified in Table 3 using the Bio-Rad SSOAdvanced Universal Probes Supermix on a CFX96 machine (Bio-Rad). The PCR cycle program consisted of 95° C. for 3 mins, followed by 40 cycles at 95° C. for 10 sec and 60° C. for 30 sec.
A DNA standard was prepared by dilution of an IDT gBlock corresponding to the amplicon with concentrations ranging from 10^2 to 10^8 copies/input (i.e. per 4 μL) and used to generate a standard curve by plotting Cq values vs. HBV DNA standard concentration. The quantity of HBV DNA in each sample was determined by interpolating from the standard curve.
Cell viability was calculated as follows: % Cell viability=(luminescence value of test sample)/(average luminescence value of 2% DMSO control)×100%. HBV DNA inhibition was calculated as follows: 100−(HBV DNA copy number of test sample)/(average HBV DNA copy number of 2% DMSO control)×100%. No normalization to entecavir was required due to the excellent dynamic window of this assay. The CC50, EC50 and EC90 values were determined by dose-response curves fitted by GraphPad Prism using “log (agonist) vs. response—Variable slope”.

Row | Compound | pEC50
1 | COc1ccc(CNC(=O)c2c3n(c(=O)n2-c2ccc(C#N)cc2)CCN(C(=O)c2ccc(Br)c(Cl)c2)C3)c(C)c1 [Example 163, 7-(4-bromo-3-chloro-benzoyl)-2-(4-cyanophenyl)-N-[(4-methoxy-2-methyl-phenyl)methyl]-3-oxo-6,8-dihydro-5H-imidazo[1,5-a]pyrazine-1-carboxamide] | 5.30 to 6.30
2 | COc1ccc(CN2Cc3c4n(c(=O)n3C[C@H](O)C2)CCN(C(=O)c2ccc(Br)c(Cl)c2)C4)c(F)c1 (stereo in doubt) [Example 288, rac-(11R)-4-(4-bromo-3-chloro-benzoyl-13-[(2-fluoro-4-methoxy-phenyl)methyl]-11-hydroxy-4,7,9,13-tetrazatricyclo[7.5.0.0^2,7]tetradec-1-ene-8,14-dione] | 6.30 to 7.00
3 | COc1ccc(-n2c(C(=O)NCc3ccnnc3)c3n(c2=O)CCN(C(=O)c2ccc(Cl)c(Cl)c2)C3)cc1 [Example 53, 7-(3,4-dichlorobenzoyl)-2-(4-methoxyphenyl)-3-oxo-N-(pyridazin-4-ylmethyl)-6,8-dihydro-5H-imidazo[1,5-a]pyrazine-1-carboxamide] | < 5.30
4 | O=C(NCc1ccccc1)c1c2n(c(=O)n1-c1ccc(N3CCO[C@H](C(F)(F)F)C3)cc1)CCN(C(=O)c1ccc(Br)c(Cl)c1)C2 [Example 415, N-benzyl-7-(4-bromo-3-chloro-benzoyl)-2-[4-(2,2-difluoro-1λ^2-fluora-8-oxa-5-azaspiro[2.5]octan-5-yl)phenyl]-3-oxo-6,8-dihydro-5H-imidazo[1,5-a]pyrazine-1-carboxamide] | 6.30 to 7.00
5 | CC(C)Oc1ccc(-n2c(C(=O)NCc3ccc(=O)n(C)c3)c3n(c2=O)CCN(C(=O)c2ccc(Br)c(Cl)c2)C3)cc1 [Example 232, 7-(4-bromo-3-chloro-benzoyl)-2-(4-isopropoxyphenyl)-N-[(1-methyl-6-oxo-3-pyridyl)methyl]-3-oxo-6,8-dihydro-5H-imidazo[1,5-a]pyrazine-1-carboxamide] | < 5.30
6 | COc1ccc([C@H](C)NC(=O)c2c3n(c(=O)n2-c2ccc(-n4cccn4)cc2)CCN(C(=O)c2ccc(Br)c(Cl)c2)C3)cc1 [Example 442, 7-(4-bromo-3-chloro-benzoyl)-N-[(1S)-1-(4-methoxyphenyl)ethyl]-3-oxo-2-(4-pyrazol-1-ylphenyl)-6,8-dihydro-5H-imidazo[1,5-a]pyrazine-1-carboxamide] | 6.30 to 7.00
7 | C[C@H](NC(=O)c1c2n(c(=O)n1C1CC1)CCN(C(=O)c1ccc(Br)c(Cl)c1)C2)c1ccccc1 (stereo in doubt) [Example 190, 7-(4-bromo-3-chloro-benzoyl)-2-cyclopropyl-3-oxo-N-[rac-(1S)-1-phenylethyl]-6,8-dihydro-5H-imidazo[1,5-a]pyrazine-1-carboxamide] | 5.30 to 6.30
8 | COc1ccc(-n2c(C(=O)NC(c3ccccc3)C3CC3)c3n(c2=O)CCN(C(=O)c2ccc(Br)c(Cl)c2)C3)cc1 (racemic) [Example 176, 7-(4-bromo-3-chloro-benzoyl)-2-(4-methoxyphenyl)-3-oxo-N-[rac-(S)-cyclopropyl(phenyl)methyl]-6,8-dihydro-5H-imidazo[1,5-a]pyrazine-1-carboxamide] | 6.30 to 7.00
9 | CC(C)CN1CCCn2c(c3n(c2=O)CCN(C(=O)c2ccc(Br)c(Cl)c2)C3)C1=O [Example 134, 4-(4-bromo-3-chloro-benzoyl)-13-isobutyl-4,7,9,13-tetrazatricyclo[7.5.0.0^2,7]tetradec-1-ene-8.14-dione] | < 5.30
10 | O=C(NCc1cccc2[nH]cnc12)c1c2n(c(=O)n1-c1ccc(OCC(F)(F)F)cc1)CCN(C(=O)c1ccc(Br)c(Cl)c1)C2 [Example 368, N-(1H-benzimidazol-4-ylmethyl)-7-(4-bromo-3-chloro-benzoyl)-3-oxo-2-[4-(2,2,2-trifluoroethoxy)phenyl]-6,8-dihydro-5H-imidazo[1,5-a]pyrazine-1-carboxamide] | 5.30 to 6.30
11 | COc1ccc(-n2c(C(=O)NCc3ccc(OC(F)F)cc3)c3n(c2=O)CCN(C(=O)c2ccc(Br)c(Cl)c2)C3)cc1 [Example 148, 7-(4-bromo-3-chloro-benzoyl)-N-[[4-(difluoromethoxy)phenyl]methyl]-2-(4-methoxyphenyl)-3-oxo-6,8-dihydro-5H-imidazo[1,5-a]pyrazine-1-carboxamide] | 6.30 to 7.00
12 | O=C(c1ccc(Br)c(Cl)c1)N1CCn2c(c3n(c2=O)C[C@@H](O)CN(Cc2ccccc2)C3=O)C1 (stereo in doubt) [Example 175, rac-(11S)-13-benzyl-4-(4-bromo-3-chloro-benzoyl)-11-hydroxy-4,7,9,13-tetrazatricyclo[7.5.0.0^2,7]tetradec-1-ene-8.14-dione] | 5.30 to 6.30
13 | COC(=O)c1cccc(CNC(=O)c2c3n(c(=O)n2-c2ccc(OC)cc2)CCN(C(=O)c2ccc(Br)c(Cl)c2)C3)c1 [Example 165, methyl 3-[[[7-(4-bromo-3-chloro-benzoyl)-2-(4-methoxyphenyl)-3-oxo-6,8-dihydro-5H-imidazo[1,5-a]pyrazine-1-carbonyl]amino]methyl]benzoate] | 6.30 to 7.00
14 | COc1ccc(-n2c(C(=O)NCc3ccc4[nH]c(=O)[nH]c4c3)c3n(c2=O)CCN(C(=O)c2ccc(Cl)c(Cl)c2)C3)cc1 [Example 93, 7-(3,4-dichlorobenzoyl)-2-(4-methoxyphenyl)-3-oxo-N-[(2-oxo-1,3-dihydrobenzimidazol-5-yl)methyl]-6,8-dihydro-5H-imidazo[1,5-a]pyrazine-1-carboxamide] | < 5.30
15 | COc1ccc(-n2c(C(=O)NCc3ccc(F)cc3C)c3n(c2=O)CCN(C(=O)c2ccc(Br)c(Cl)c2)C3)cc1 [Example 116, 7-(4-bromo-3-chloro-benzoyl)-N-[(4-fluoro-2-methyl-phenyl)methyl]-2-(4-methoxyphenyl)-3-oxo-6,8-dihydro-5H-imidazo[1,5-a]pyrazine-1-carboxamide] | 6.30 to 7.00
16 | COc1ccc(-n2c(C(=O)NCc3ccccc3)c3n(c2=O)CCN(C(=O)c2ccc(Br)c(Cl)c2)C3)nc1 [Example 110, N-benzyl-7-(4-bromo-3-chloro-benzoyl)-2-(5-methoxy-2-pyridyl)-3-oxo-6,8-dihydro-5H-imidazo[1,5-a]pyrazine-1-carboxamide] | 5.30 to 6.30
17 | N#CCOc1ccc(CNC(=O)c2c3n(c(=O)n2-c2ccc(OC4CC4)cc2)CCN(C(=O)c2ccc(Br)c(Cl)c2)C3)c(F)c1 [Example 323, 7-(4-bromo-3-chloro-benzoyl)-N-[[4-(cyanomethoxy)-2-fluoro-phenyl]methyl]-2-[4-(cyclopropoxy)phenyl]-3-oxo-6,8-dihydro-5H-imidazo[1,5-a]pyrazine-1-carboxamide] | 6.30 to 7.00
18 | O=C(NCc1cccc2[nH]cnc12)c1c2n(c(=O)n1-c1ccc(OC3CC3)cc1)CCN(C(=O)c1ccc(Br)c(Cl)c1)C2 [Example 367, N-(1H-benzoimidazol-4-ylmethyl)-7-(4-bromo-3-chloro-benzoyl)-2-[4-(cyclopropoxy)phenyl]-3-oxo-6,8-dihydro-5H-imidazo[1,5-a]pyrazine-1-carboxamide] | 6.30 to 7.00
19 | CC(C)Oc1ccc(-n2c(C(=O)NCc3ccc(C(=O)O)cc3)c3n(c2=O)CCN(C(=O)c2ccc(Br)c(Cl)c2)C3)cc1 [Example 294, 4-[[[7-(4-bromo-3-chloro-benzoyl)-2-(4-isopropoxyphenyl)-3-oxo-6,8-dihydro-5H-imidazo[1,5-a]pyrazine-1-carbonyl]amino]methyl]benzoic acid] | < 5.30
20 | COc1ccc(CNC(=O)c2c3n(c(=O)n2-c2ccc(OC(C)C)cc2)CCN(C(=O)c2ccc(Br)c(Cl)c2)C3)c(F)c1 [Example 218, 7-(4-bromo-3-chloro-benzoyl)-N-[(2-fluoro-4-methoxy-phenyl)methyl]-2-(4-isopropoxyphenyl)-3-oxo-6,8-dihydro-5H-imdiazo[1,5-a]pyrazine-1-carboxamide] | > 7.00
21 | COc1ccc(-n2c(C(=O)NCc3cccc4cccnc34)c3n(c2=O)CCN(C(=O)c2ccc(Br)c(Cl)c2)C3)cc1 [Example 166, 7-(4-bromo-3-chloro-benzoyl)-2-(4-methoxyphenyl)-3-oxo-N-(8-quinolylmethyl)-6,8-dihydro-5H-imidazo[1,5-a]pyrazine-1-carboxamide] | 6.30 to 7.00
